Legend:
[1] = test system: TRAMPC2 with wild type fibroblasts allografts; experiment: Sub-renal capsule allograft of TRAMPC2 with wild type fibroblasts in C57BL/6 mice; format: in vivo, mouse
Description: FIG. 3, panels A-E, depicts Role of C3a in PCa progression. A PCa cell lines incubated in the absence and presence of C3a receptor agonist peptide (48 hr) was western blotted for cell survival and proliferation protein expression. B C57BL/6 mice were allografted with tissue recombinants of luciferase-expressing TRAMPC2 with wild type (wt) or Tlr9^-/-fibroblasts. The mice were treated with saline or […], SB290157. Luciferase bioluminescence was used to image tumor progression. C Mean tumor volume (mm^3) and standard deviation (S.D.) for each treatment condition are depicted (n=8). D H&E and immunohistochemistry for phosphorylated-AKT, phosphorylated-histone-H3 and TUNEL staining of the tumor tissues were performed and quantitated. […] The scale bar represents 10 µm.
To validate the observation of C3a signaling, we allografted mouse prostatic fibroblasts with PCa epithelia into syngeneic C57B/6 mice. We grafted either wild type or TLR9-knockout fibroblasts and recombined them with luciferase-expressing TRAMPC2 cells under the renal capsule. After the tumors were visible by bioluminescent imaging, the mice were treated with either vehicle (control) or SB290157, a C3aR antagonist. […] We were only able to perform immunohistochemistry on the grafts with wild type fibroblasts and TRAMPC2, as not enough tissue was available from grafts with TLR9-knockout fibroblasts. […] The activation of AKT, localized by phosphorylated AKT staining, was elevated in the tumor cells of mouse allografted with wild type fibroblasts and reversed in SB290157 treated mice.
Complement anaphylatoxins have a wide spectrum of proinflammatory effects. C3a is particularly regarded for the chemotaxis of mast cells, basophils and eosinophils. As T lymphocytes are confirmed regulators of tumor progression and known to respond to C3a, we measured the impact of C3a antagonism on T cell recruitment to the tumors.

PC3 and CAF co-culture = experiment: 3D organotypic co-culture of PC3 and CAF, EpCAM+/Ki67+ FACS; format: cell-based; conditions: PC3 and CAF 3D co-culture, 48 hours
Description: (§1) Significance was determined by repeated measures ANOVA.
3D organotypic co-culture: 3D organotypic co-culture was performed in a collagen matrix. PC3 and CAF were combined in a 1:3 ratio in collagen matrix contain 50% rat tail collagen I, 20% of matrigel, 10% of 10x DMEM medium and 1x ready DMEM 5%, 1x ready RPMI 5%, FBS 5% and Nu serum 5%. Cells were treated with docetaxel and SB290157 for 48 hours after 72 hours of expansion in the matrix. The cells were dissociated from the matrix with collagenase and dispase for Ki67 FACS analysis.

PC3 cells = experiment: MTT viability drug interaction study, Chou-Talalay method; format: cell-based; conditions: low doses of SB290157 with docetaxel
Description: as §1
Statistical analysis: Experiments were done a minimum of three times. Results were shown in terms of mean ± S.D. Student’s t-test and one-way ANOVA were used for comparisons among groups and repeated measured ANOVA was applied for determining the significance of two or more data series. Statistical tests utilized are reported in the figure legends, along with the associated P values was performed by using Origin software (OriginLab, Northampton, MA). Cell viability was examined by using MTT assay as indicated by the manufacturer (Thermo Fisher, Canoga Park, CA) for the calculation of synergistic drug interactions was performed by Chou-Talalay method (R Package).

[2] = test system: xenografts of CAF and PC3 cells; experiment: Subcutaneous xenograft of PC3 and CAF in male nude mice
Description: A Subcutaneous xenografts of PC3 and CAF tumor volumes were longitudinally measured. […] Representative images show each group of mice (inset). […] C Immunolocalization ofphosphorylated-TAK1, complement C3, phosphorylated-AKT, phosphorylated-histoneH3 and TUNEL expression in tumor tissues (brown) was counterstained with hematoxylin (blue). The corresponding bar graph illustrate the mean and S.D. expression of the respective staining (n=5). Data represent the mean ± S.D. by one-way ANOVA (*P <0.05; **P <0.01). The scale bar represents 10 µm.
Data represent the mean ± S.D. among groups by oneway ANOVA (ns - not significant). C H&E images of resulting tumors from each treatment group of subcutaneous xenografted mice.
Animal experiments and cultured cells: Male C57BL/6 mice aged 7-8 weeks were housed in a pathogen-free environment at the Cedars-Sinai Medical Center Animal Facility under the approval of the Institutional Animal Care and Use Committee (# 3679). Sub-renal capsule was performed with wild type mouse fibroblasts (6×10^5) or TLR9^-/- mouse fibroblasts (6×10^5) combining with mouse prostate epithelial cell TRAMP-C2 (2×10^5) . Treatment with SB290157 (1 mg/kg; i.p. daily) was started after two weeks of grafting and continued for five weeks. All mouse kidney, spleen, lymph nodes were harvested after five weeks of treatment were fixed in paraffin embedded for IHC or dissociated for FACS analysis. Subcutaneous xenograft was done in male nude mice aged 7-8 weeks in combination of PC3 (5×10^5) and CAF (15×10^5). […] Harvested tissues were fixed in paraffin embedded for IHC or dissociated for immunoblot analysis.
Immunodetection: Paraffin embedded tissue were processed for Immunohistochemical localization was performed with antibodies against p-AKT, p-TAK, p-histoneH3 (Cell Signaling, Danvers, MA), C3 (Santa Cruz Biotechnology, Santa Cruz, CA), and TUNEL (Thermo Fisher Scientific Inc.) as previously described before (52, 53). All the slides were scanned using Leica SCN400 (Leica Micro System, Buffalo Grove, IL) and analyzed by Tissue IA Optimizer (Leica). The values of positively stained cells were measured in an unbiased manner. C3a concentration of cultured medium and serum was assayed by sandwich ELISA using human C3a ELISA kit (BD Bioscience, San Jose, CA) according to the manufacturer’s instructions. Western blots separated by 10, 12, or 15% SDS-polyacrylamidegels were incubated with primary antibodies for TLR9, DEC205 (LS Bio Seattle, WA), phospho-TAK1, TAK1, phospho-AKT, AKT, phosphor-ERK1/2, ERK, BCL2, beclin, CHOP (Cell Signaling), LC3 (Abcam, Cambridge, MA), C3 (Santa Cruz Biotechnology) and p62 (ProgenBiotechnik, Heidelberg, Germany). Western blots were visualized using alkaline phosphatase-conjugated secondary antibodies (Sigma-Aldrich). The ELISA for anaphylatoxin C3a for performed according to manufacturer guidelines (LSBio Inc.).

[3] = western blot, SB290157 with docetaxel

## NC(N)=NCCC[C@H](NC(=O)COCC(c1ccccc1)c1ccccc1)C(=O)O [SB290157]
[1]; 1 mg/kg i.p. daily, versus vehicle treated mice
  tumor size: significantly smaller tumor size
[1]; FACS of tumor tissues
  CD3+ T cells recruited to the tumors: similarly recruited
  CD8+ T cell activation (CD69+ expression): appreciably downregulated
[1]; immunohistochemistry of grafts
  activation of AKT (phosphorylated AKT staining): reversed
  cell death (TUNEL staining): elevate cell death
[1]; immunohistochemistry of grafts, 1 mg/kg i.p. daily, 1 mg/kg
  tumor cell mitosis (phosphorylated-histone H3 expression), tumor proliferation: significantly diminish tumor proliferation
[1]; immunohistochemistry of grafts, 1 mg/kg i.p. daily, listed as SB29157, 1 mg/kg
  tumor cell mitosis (phosphorylated-histone H3 expression), tumor proliferation: significantly lower
PC3 and CAF co-culture
  EpCAM+/Ki67+ proliferative epithelial fraction: restored the sensitivity of PC3 cells to docetaxel
PC3 cells
  fractional inhibitory concentration index: < 0.5
[2]; SB290157 with docetaxel compared to docetaxel alone
  apoptosis (TUNEL): did not result in greater apoptosis
[2]; combined treatment of docetaxel (6 mg/kg/week) and SB290157 (1 mg/kg IP every day), P < 0.05
  tumor growth: significantly limited tumor growth
[2]; immunohistochemistry, combined treatment of docetaxel and SB290157 versus docetaxel
  phosphorylation of AKT and phosphorylated histone-H3 (cell survival pathway and mitosis): significantly diminished
[2]; [3]
  AKT and ERK1/2 phosphorylation in tumor tissues: reduced AKT and ERK1/2 phosphorylation
  Blc2 in tumor tissues: reduced

Source: patent US20230121867A1, “COMPOSITIONS AND METHODS FOR TREATING DISEASES AND CONDITIONS BY DEPLETION OF MITOCHONDRIAL OR GENOMIC DNA FROM CIRCULATION” (Cedars-Sinai Medical Center, priority 2019, published 2023)
